We go through twelve compounds from patent US20250064941A1, “SIGLEC LIGANDS, CONJUGATES, AND METHODS OF USE THEREOF” (Osprey Biopharmaceuticals, Inc., priority 2023, published 2025).

Assay [1] addresses T1, mouse Siglec-2-Fc-Avi (CD22) (Mus musculus, UniProt P35329).
T1 construct: made in house
T1 sequence (P35329 22-708 limits assumed): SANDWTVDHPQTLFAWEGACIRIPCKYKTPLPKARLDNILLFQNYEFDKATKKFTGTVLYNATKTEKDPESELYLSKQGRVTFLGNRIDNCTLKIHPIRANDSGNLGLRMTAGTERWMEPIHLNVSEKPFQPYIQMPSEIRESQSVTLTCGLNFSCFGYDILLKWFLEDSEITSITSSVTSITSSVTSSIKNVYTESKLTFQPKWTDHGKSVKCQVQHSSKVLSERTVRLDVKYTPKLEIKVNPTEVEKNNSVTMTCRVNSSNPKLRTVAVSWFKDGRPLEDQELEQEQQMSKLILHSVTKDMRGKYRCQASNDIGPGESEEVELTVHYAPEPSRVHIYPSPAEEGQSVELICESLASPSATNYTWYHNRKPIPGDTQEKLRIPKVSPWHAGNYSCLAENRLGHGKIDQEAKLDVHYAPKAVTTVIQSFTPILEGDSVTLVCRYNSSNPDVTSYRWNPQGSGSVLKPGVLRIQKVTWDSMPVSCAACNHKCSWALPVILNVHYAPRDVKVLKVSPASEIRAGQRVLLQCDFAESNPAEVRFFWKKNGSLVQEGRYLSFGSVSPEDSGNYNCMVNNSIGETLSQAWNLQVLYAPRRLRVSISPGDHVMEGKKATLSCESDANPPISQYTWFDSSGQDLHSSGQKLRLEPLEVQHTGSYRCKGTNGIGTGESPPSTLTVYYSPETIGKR
The assay is described as follows: SPR binding affinity to mouse CD22. Particulars: steady-state analysis. In a few lines:
(§1)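 Using a Biacore 8K, compounds were tested against biotinylated CD22 captured after sialidase treatment. The running buffer held 1% DMSO, corrected with a 0.5–2% DMSO series. Affinity was derived by steady-state analysis.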
(SPR reads the build-up and loss of mass on a sensor chip optically.)

Assay [2] has as its target T2, human Siglec-2/CD22 protein (Homo sapiens, UniProt P20273).
T2 construct: purchased Acro Biosystems SI2-H82E3
T2 sequence (P20273 20-847): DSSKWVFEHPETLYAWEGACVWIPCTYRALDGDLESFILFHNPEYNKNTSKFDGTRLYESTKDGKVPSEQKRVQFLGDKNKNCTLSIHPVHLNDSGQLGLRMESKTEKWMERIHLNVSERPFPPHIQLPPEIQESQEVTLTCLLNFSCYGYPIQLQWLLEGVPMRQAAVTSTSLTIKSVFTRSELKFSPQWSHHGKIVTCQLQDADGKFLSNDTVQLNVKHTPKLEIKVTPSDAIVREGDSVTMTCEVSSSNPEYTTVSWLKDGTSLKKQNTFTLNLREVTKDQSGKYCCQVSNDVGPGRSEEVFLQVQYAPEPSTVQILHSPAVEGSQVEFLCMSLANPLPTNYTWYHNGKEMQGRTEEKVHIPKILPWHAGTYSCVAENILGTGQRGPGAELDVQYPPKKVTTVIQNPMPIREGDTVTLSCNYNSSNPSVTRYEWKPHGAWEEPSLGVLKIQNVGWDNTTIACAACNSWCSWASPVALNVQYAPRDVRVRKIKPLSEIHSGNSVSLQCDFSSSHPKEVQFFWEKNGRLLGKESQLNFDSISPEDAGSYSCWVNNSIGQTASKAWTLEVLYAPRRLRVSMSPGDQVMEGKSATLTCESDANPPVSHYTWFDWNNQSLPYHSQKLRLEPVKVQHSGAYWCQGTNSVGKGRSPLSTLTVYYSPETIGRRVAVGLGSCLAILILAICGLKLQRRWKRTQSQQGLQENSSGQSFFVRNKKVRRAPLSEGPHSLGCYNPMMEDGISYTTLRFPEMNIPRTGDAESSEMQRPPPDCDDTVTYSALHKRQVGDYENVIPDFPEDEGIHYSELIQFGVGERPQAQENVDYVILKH
The assay is described as follows: SPR binding affinity to human CD22. Particulars: steady-state analysis. An outline of the steps: as §1

The next assay concerns the target cynomolgus Siglec-2/CD22 (Macaca fascicularis, UniProt A0A2K5WCZ6). In words: biochemical. The format is binding. Particulars: SPR, steady-state analysis; read-out: Affinity cyno CD22. An outline of the steps:
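SPR with desialylated (SialoExo, 4 h, 37° C.) cynomolgus CD22 amine-coupled to a CM5 chip. Running buffer 10 mM HEPES, 150 mM NaCl, 0.05% Tween-20, pH 7.5, 1% DMSO, with solvent correction; 120 s dissociation. Affinities from steady-state analysis.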

cynomolgus Siglec-2/CD22, sequence (A0A2K5WCZ6 entry or part of it): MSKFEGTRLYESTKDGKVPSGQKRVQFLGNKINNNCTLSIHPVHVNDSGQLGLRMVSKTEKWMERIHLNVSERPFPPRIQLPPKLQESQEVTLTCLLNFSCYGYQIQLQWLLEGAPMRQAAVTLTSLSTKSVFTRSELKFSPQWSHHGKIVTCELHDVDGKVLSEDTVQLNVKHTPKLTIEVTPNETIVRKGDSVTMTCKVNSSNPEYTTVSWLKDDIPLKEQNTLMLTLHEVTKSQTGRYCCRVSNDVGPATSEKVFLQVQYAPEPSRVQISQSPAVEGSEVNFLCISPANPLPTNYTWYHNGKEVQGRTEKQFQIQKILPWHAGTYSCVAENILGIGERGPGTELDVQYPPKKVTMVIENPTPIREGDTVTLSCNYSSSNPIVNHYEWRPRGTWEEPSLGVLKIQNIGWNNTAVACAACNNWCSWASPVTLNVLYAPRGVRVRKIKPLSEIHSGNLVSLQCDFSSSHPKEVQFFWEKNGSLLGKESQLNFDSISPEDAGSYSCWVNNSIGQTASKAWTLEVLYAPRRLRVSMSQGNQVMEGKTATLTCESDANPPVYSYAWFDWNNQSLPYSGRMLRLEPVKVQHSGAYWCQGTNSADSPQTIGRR

In the case of `C#CCOCCCCCCO[C@]1(C(=O)O)C[C@H](O)[C@@H](NC(=O)Cc2ccccc2)[C@H]([C@H](O)[C@H](O)CNC(=O)Cc2ccc(Cl)cc2)O1` [Compound 93, (2R,4S,5R,6R)-6-((1R,2R)-3-(2-(4-chlorophenyl)acetamido)-1,2-dihydroxypropyl)-4-hydroxy-5-(2-phenylacetamido)-2-((6-(prop-2-yn-1-yloxy)hexyl)oxy)tetrahydro-2H-pyran-2-carboxylic acid], the Kd in assay [1] is > 10 µM; in assay [2], 1 to 10 µM; on cynomolgus Siglec-2/CD22, > 10 µM.
As to `C#CCOCCCCCCO[C@]1(C(=O)O)C[C@H](O)[C@@H](NC(=O)NCC2CC2)[C@H]([C@H](O)[C@H](O)CNC(=O)Cc2ccc(Cl)cc2)O1` [Compound 94, (2R,4S,5R,6R)-6-((1R,2R)-3-(2-(4-chlorophenyl)acetamido)-1,2-dihydroxypropyl)-5-(3-(cyclopropylmethyl)ureido)-4-hydroxy-2-((6-(prop-2-yn-1-yloxy)hexyl)oxy)tetrahydro-2H-pyran-2-carboxylic acid], the Kd (in assay [1]; in assay [2]; at cynomolgus Siglec-2/CD22) was 1 to 10 µM throughout.
With `C#CCCCCNC(=O)CCCCCCO[C@]1(C(=O)O)C[C@H](O)[C@@H](NC(=O)CO)[C@H]([C@H](O)[C@H](O)CNC(=O)Cc2ccc(Cl)cc2)O1` [Compound 96, (2R,4S,5R,6R)-6-((1R,2R)-3-(2-(4-chlorophenyl)acetamido)-1,2-dihydroxypropyl)-2-((7-(hex-5-yn-1-ylamino)-7-oxoheptyl)oxy)-4-hydroxy-5-(2-hydroxyacetamido)tetrahydro-2H-pyran-2-carboxylic acid], the Kd (in assay [1]; in assay [2]; at cynomolgus Siglec-2/CD22) was < 1 µM each time.
`O=C(O)CCCCCCCO[C@]1(C(=O)O)C[C@H](O)[C@@H](NC(=O)CO)[C@H]([C@H](O)[C@H](O)CNC(=O)Cc2ccc(Cl)cc2)O1` [Compound 97, (2R,4S,5R,6R)-2-((7-carboxyheptyl)oxy)-6-((1R,2R)-3-(2-(4-chlorophenyl)acetamido)-1,2-dihydroxypropyl)-4-hydroxy-5-(2-hydroxyacetamido)tetrahydro-2H-pyran-2-carboxylic acid]: the Kd (in assay [1]; in assay [2]; on cynomolgus Siglec-2/CD22) was < 1 µM each time.
With `O=C(O)CCCCCCO[C@]1(C(=O)O)C[C@H](O)[C@@H](NC(=O)CO)[C@H]([C@H](O)[C@H](O)CNC(=O)Cc2ccc(Cl)cc2)O1` [Compound 98, (2R,4S,5R,6R)-2-((6-carboxyhexyl)oxy)-6-((1R,2R)-3-(2-(4-chlorophenyl)acetamido)-1,2-dihydroxypropyl)-4-hydroxy-5-(2-hydroxyacetamido)tetrahydro-2H-pyran-2-carboxylic acid], the figures for the Kd (in assay [1]; in assay [2]; at cynomolgus Siglec-2/CD22) were 1 to 10 µM, < 1 µM and < 1 µM, respectively.
With `O=C(O)CCCCCCCCCCCCCCCO[C@]1(C(=O)O)C[C@H](O)[C@@H](NC(=O)CO)[C@H]([C@H](O)[C@H](O)CNC(=O)Cc2ccc(Cl)cc2)O1` [Compound 99, (2R,4S,5R,6R)-2-((15-carboxypentadecyl)oxy)-6-((1R,2R)-3-(2-(4-chlorophenyl)acetamido)-1,2-dihydroxypropyl)-4-hydroxy-5-(2-hydroxyacetamido)tetrahydro-2H-pyran-2-carboxylic acid], the Kd (in assay [1]; in assay [2]; at cynomolgus Siglec-2/CD22) was < 1 µM in each case.
Take `C#CCN(CC(=O)O)C(=O)CCCCCO[C@]1(C(=O)O)C[C@H](O)[C@@H](NC(=O)CO)[C@H]([C@H](O)[C@H](O)CNC(=O)Cc2ccc(Cl)cc2)O1` [Compound 100, (2R,4S,5R,6R)-2-((6-((carboxymethyl)(prop-2-yn-1-yl)amino)-6-oxohexyl)oxy)-6-((1R,2R)-3-(2-(4-chlorophenyl)acetamido)-1,2-dihydroxypropyl)-4-hydroxy-5-(2-hydroxyacetamido)tetrahydro-2H-pyran-2-carboxylic acid]: the Kd (in assay [1]; in assay [2]; on cynomolgus Siglec-2/CD22) was < 1 µM in each case.
On to `C#CCN(CC(=O)O)C(=O)CCCO[C@]1(C(=O)O)C[C@H](O)[C@@H](NC(=O)CO)[C@H]([C@H](O)[C@H](O)CNC(=O)Cc2ccc(Cl)cc2)O1` [Compound 101, (2R,4S,5R,6R)-2-(4-((carboxymethyl)(prop-2-yn-1-yl)amino)-4-oxobutoxy)-6-((1R,2R)-3-(2-(4-chlorophenyl)acetamido)-1,2-dihydroxypropyl)-4-hydroxy-5-(2-hydroxyacetamido)tetrahydro-2H-pyran-2-carboxylic acid], for which the Kd (in assay [1]; in assay [2]; on cynomolgus Siglec-2/CD22) was 1 to 10 µM throughout.
Regarding `C#CCC(NC(=O)CCCO[C@]1(C(=O)O)C[C@H](O)[C@@H](NC(=O)CO)[C@H]([C@H](O)[C@H](O)CNC(=O)Cc2ccc(Cl)cc2)O1)C(=O)O` (stereo partly drawn) [Compound 102, (2R,4S,5R,6R)-2-(4-((1-carboxybut-3-yn-1-yl)amino)-4-oxobutoxy)-6-((1R,2R)-3-(2-(4-chlorophenyl)acetamido)-1,2-dihydroxypropyl)-4-hydroxy-5-(2-hydroxyacetamido)tetrahydro-2H-pyran-2-carboxylic acid], the Kd (in assay [1]; in assay [2]; at cynomolgus Siglec-2/CD22) was 1 to 10 µM in each case.
Regarding `C#CCOCCCCCCC(O)[C@]1(C(=O)O)C[C@H](O)[C@@H](NC(=O)CO)[C@H]([C@H](O)[C@H](O)CNC(=O)Cc2ccc(Cl)cc2)O1` (stereo partly drawn) [Compound 103, (2S,4S,5R,6R)-6-((1R,2R)-3-(2-(4-chlorophenyl)acetamido)-1,2-dihydroxypropyl)-4-hydroxy-2-(1-hydroxy-7-(prop-2-yn-1-yloxy)heptyl)-5-(2-hydroxyacetamido)tetrahydro-2H-pyran-2-carboxylic acid], the Kd in assay [1] is 1 to 10 µM; in assay [2] it was < 1 µM; at cynomolgus Siglec-2/CD22 it was < 1 µM.
For `NCC(O)CO[C@]1(C(=O)O)C[C@H](O)[C@@H](NC(=O)CO)[C@H]([C@H](O)[C@H](O)CNC(=O)Cc2ccc(Cl)cc2)O1` (stereo partly drawn) [Compound 104, (2R,4S,5R,6R)-2-(3-amino-2-hydroxypropoxy)-6-((1R,2R)-3-(2-(4-chlorophenyl)acetamido)-1,2-dihydroxypropyl)-4-hydroxy-5-(2-hydroxyacetamido)tetrahydro-2H-pyran-2-carboxylic acid], the Kd (in assay [1]; in assay [2]; on cynomolgus Siglec-2/CD22) was > 10 µM each time.
Regarding `C#CCOP(=O)(O)OCCCCCCO[C@]1(C(=O)O)C[C@H](O)[C@@H](NC(=O)CO)[C@H]([C@H](O)[C@H](O)CNC(=O)Cc2ccc(Cl)cc2)O1` [Compound 105, (2R,4S,5R,6R)-6-((1R,2R)-3-(2-(4-chlorophenyl)acetamido)-1,2-dihydroxypropyl)-4-hydroxy-2-((6-((hydroxy(prop-2-yn-1-yloxy)phosphoryl)oxy)hexyl)oxy)-5-(2-hydroxyacetamido)tetrahydro-2H-pyran-2-carboxylic acid], the Kd (in assay [1]; in assay [2]; at cynomolgus Siglec-2/CD22) was < 1 µM throughout.
